From ChEMBL document CHEMBL1201862, “PubChem BioAssay data set” (2004)
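Grown in 96-well plates, cells were treated for 48 hours with each compound at five concentrations. Insufficient inhibition: endpoint recorded as highest concentration tested. GI50: concentration for 50% inhibition of growth.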 Active and inactive are the calls of the source. Rule as the data show it: active = GI50 up to about 1.1 µM and inactive = higher.

What was measured:
Test in all cases: DTP human tumour cell line panel, 48 h
COLO 205 = test system: COLO 205
KM12 = test system: KM12
SF-268 = test system: SF-268
HCC 2998 = test system: HCC 2998
LOX IMVI = test system: LOX IMVI
786-0 = test system: 786-0
KM-20L2 = test system: KM-20L2
Malme-3M = test system: Malme-3M
CAKI-1 = test system: CAKI-1
OVCAR-5 = test system: OVCAR-5
HOP-92 = test system: HOP-92
SNB-19 = test system: SNB-19
UACC-257 = test system: UACC-257
CCRF-CEM = test system: CCRF-CEM
M19-MEL = test system: M19-MEL
SW-620 = test system: SW-620
OVCAR-3 = test system: OVCAR-3
MDA-N = test system: MDA-N
MDA-MB-435 = test system: MDA-MB-435
NCI/ADR-RES = test system: NCI/ADR-RES

O=c1cc(-c2ccccc2)nc(/C=C(\O)c2ccncc2)n1-c1ccccc1
GI50 (COLO 205): > 100 µM (inactive) | GI50 (KM12): > 100 µM (inactive) | GI50 (SF-268): > 100 µM (inactive) | GI50 (HCC 2998): > 100 µM (inactive) | GI50 (LOX IMVI): > 100 µM (inactive) | GI50 (786-0): > 100 µM (inactive) | GI50 (KM-20L2): > 100 µM (inactive) | GI50 (Malme-3M): > 100 µM (inactive) | GI50 (CAKI-1): > 100 µM (inactive) | GI50 (OVCAR-5): > 100 µM (inactive) | GI50 (HOP-92): > 100 µM (inactive) | GI50 (SNB-19): > 100 µM (inactive) | GI50 (UACC-257): > 100 µM (inactive) | GI50 (CCRF-CEM): > 100 µM (inactive) | GI50 (M19-MEL): > 100 µM (inactive) | GI50 (SW-620): > 100 µM (inactive) | GI50 (OVCAR-3): > 100 µM (inactive)

Cc1ccc(/C=C2\CNC/C(=C\c3ccc(C)cc3)C2=O)cc1
GI50 (COLO 205): 2.13 µM (inactive) | GI50 (KM12): 1.05 µM (active) | GI50 (MDA-N): 2.49 µM (inactive) | GI50 (SF-268): 2.53 µM (inactive) | GI50 (HCC 2998): 1.67 µM (inactive) | GI50 (LOX IMVI): 0.615 µM (active) | GI50 (786-0): 1.35 µM (inactive) | GI50 (KM-20L2): 1.32 µM (inactive) | GI50 (Malme-3M): 14.4 µM (inactive) | GI50 (CAKI-1): 2.46 µM (inactive) | GI50 (OVCAR-5): 3.87 µM (inactive) | GI50 (HOP-92): 4.54 µM (inactive) | GI50 (SNB-19): 1.65 µM (inactive) | GI50 (UACC-257): 6.46 µM (inactive) | GI50 (CCRF-CEM): 0.689 µM (active) | GI50 (M19-MEL): 1.57 µM (inactive) | GI50 (MDA-MB-435): 3.03 µM (inactive) | GI50 (SW-620): 1.12 µM (inactive) | GI50 (OVCAR-3): 2.96 µM (inactive)

O=C(/C=C/c1ccc(OCC(=O)N2CCN(c3ccccc3)CC2)cc1)c1ccc(Cl)cc1
GI50 (COLO 205): > 100 µM (inactive) | GI50 (KM12): > 100 µM (inactive) | GI50 (MDA-N): > 100 µM (inactive) | GI50 (SF-268): 26.2 µM (inactive) | GI50 (HCC 2998): > 100 µM (inactive) | GI50 (LOX IMVI): > 100 µM (inactive) | GI50 (786-0): 22 µM (inactive) | GI50 (KM-20L2): > 100 µM (inactive) | GI50 (Malme-3M): 57.3 µM (inactive) | GI50 (CAKI-1): 78.5 µM (inactive) | GI50 (OVCAR-5): > 100 µM (inactive) | GI50 (HOP-92): 13.3 µM (inactive) | GI50 (SNB-19): 18.6 µM (inactive) | GI50 (UACC-257): > 72.4 µM (inactive) | GI50 (CCRF-CEM): > 100 µM (inactive) | GI50 (NCI/ADR-RES): 59.2 µM (inactive) | GI50 (M19-MEL): > 100 µM (inactive) | GI50 (MDA-MB-435): > 100 µM (inactive) | GI50 (SW-620): > 100 µM (inactive) | GI50 (OVCAR-3): > 92 µM (inactive)

Cc1ccc(-c2cc(O)c3cc4c(cc3n2)OCO4)cc1
GI50 (COLO 205): 0.63 µM (active) | GI50 (KM12): 0.836 µM (active) | GI50 (SF-268): 2.96 µM (inactive) | GI50 (HCC 2998): 1.42 µM (inactive) | GI50 (LOX IMVI): 2.67 µM (inactive) | GI50 (786-0): 1.78 µM (inactive) | GI50 (KM-20L2): 1.67 µM (inactive) | GI50 (Malme-3M): 0.52 µM (active) | GI50 (CAKI-1): 3.52 µM (inactive) | GI50 (OVCAR-5): 2.61 µM (inactive) | GI50 (HOP-92): 1.87 µM (inactive) | GI50 (SNB-19): 3.12 µM (inactive) | GI50 (UACC-257): > 100 µM (inactive) | GI50 (CCRF-CEM): 1.05 µM (active) | GI50 (M19-MEL): 0.805 µM (active) | GI50 (SW-620): 0.482 µM (active) | GI50 (OVCAR-3): 0.929 µM (active)

COc1cc2c(cc1OC)[C@@H]([C@H](O)c1ccccc1)NCC2
GI50 (COLO 205): > 100 µM (inactive) | GI50 (KM12): > 100 µM (inactive) | GI50 (SF-268): > 100 µM (inactive) | GI50 (HCC 2998): > 100 µM (inactive) | GI50 (LOX IMVI): > 100 µM (inactive) | GI50 (786-0): > 100 µM (inactive) | GI50 (KM-20L2): > 100 µM (inactive) | GI50 (Malme-3M): > 100 µM (inactive) | GI50 (CAKI-1): > 84.9 µM (inactive) | GI50 (OVCAR-5): > 100 µM (inactive) | GI50 (HOP-92): > 74.1 µM (inactive) | GI50 (SNB-19): > 100 µM (inactive) | GI50 (UACC-257): > 100 µM (inactive) | GI50 (CCRF-CEM): > 100 µM (inactive) | GI50 (M19-MEL): > 100 µM (inactive) | GI50 (SW-620): > 100 µM (inactive) | GI50 (OVCAR-3): > 100 µM (inactive)

NC1=NN(c2ccccc2)C(=O)C1C(=O)CCC(=O)Nc1cccc(Cl)c1 (centres undefined)
GI50 (COLO 205): > 100 µM (inactive) | GI50 (KM12): > 100 µM (inactive) | GI50 (SF-268): > 100 µM (inactive) | GI50 (HCC 2998): > 100 µM (inactive) | GI50 (LOX IMVI): > 100 µM (inactive) | GI50 (786-0): > 100 µM (inactive) | GI50 (KM-20L2): > 100 µM (inactive) | GI50 (Malme-3M): > 100 µM (inactive) | GI50 (CAKI-1): > 100 µM (inactive) | GI50 (OVCAR-5): > 100 µM (inactive) | GI50 (HOP-92): > 100 µM (inactive) | GI50 (SNB-19): > 100 µM (inactive) | GI50 (UACC-257): > 100 µM (inactive) | GI50 (CCRF-CEM): > 100 µM (inactive) | GI50 (M19-MEL): > 100 µM (inactive) | GI50 (SW-620): > 100 µM (inactive) | GI50 (OVCAR-3): > 100 µM (inactive)

COC(c1ccccc1)C(c1ccccc1)N1CCOCC1 (centres undefined)
GI50 (COLO 205): > 100 µM (inactive) | GI50 (KM12): > 100 µM (inactive) | GI50 (SF-268): > 100 µM (inactive) | GI50 (HCC 2998): > 100 µM (inactive) | GI50 (LOX IMVI): > 100 µM (inactive) | GI50 (786-0): > 100 µM (inactive) | GI50 (KM-20L2): > 100 µM (inactive) | GI50 (Malme-3M): > 100 µM (inactive) | GI50 (CAKI-1): > 100 µM (inactive) | GI50 (OVCAR-5): > 100 µM (inactive) | GI50 (HOP-92): > 100 µM (inactive) | GI50 (SNB-19): > 100 µM (inactive) | GI50 (UACC-257): > 100 µM (inactive) | GI50 (CCRF-CEM): > 100 µM (inactive) | GI50 (M19-MEL): > 100 µM (inactive) | GI50 (SW-620): > 100 µM (inactive) | GI50 (OVCAR-3): > 100 µM (inactive)
